Measured values published in ChEMBL document CHEMBL1641403, “Scytonemides A and B, cyclic peptides with 20S proteasome inhibitory activity from the cultured cyanobacterium Scytonema hofmanii” (J Nat Prod, 2010).

Legend:
[1] = Inhibition of human 20S proteasome
[2] = system: HT-29; assay: Inhibition of 20S proteasome in human HT-29 cells; format: cell-based
[3] = system: HT-29; assay: Cytotoxicity against human HT-29 cells; format: cell-based
[4] = system: HT-29; assay: Inhibition of 20S proteasome in human HT-29 cells at 6.7 uM by luminescence-based assay; format: cell-based
[5] = Chemical stability of the compound; format: physicochemical
[6] = Metabolic stability of the compound in human HT-29 cells; format: ADME, cell-based; details: read-out: Stability (converted)

IC50 [1]	Stability [5]	half-life [6]	Compound	ED50 [2]	Activity [3]	inhibition [4]
> 50 µM			CCCCC[C@H]1CC(=O)N[C@@H](CO)C(=O)N[C@@H](Cc2ccccc2)C(=O)N[C@@H](Cc2ccc(O)cc2)C(=O)N[C@H](CCCNC(N)=O)C(=O)N[C@@H](CC(=O)O)C(=O)O1 [scytonemides B]			
	3 days	2 h	CC[C@H](C)[C@H]1NC(=O)[C@@H](CCC(N)=O)NC(=O)CNC(=O)[C@H](Cc2ccc(O)cc2)/N=C/[C@H](CC(C)C)NC(=O)[C@H](C(C)C)NC(=O)[C@H](CO)NC1=O [SCYTONEMIDES A]	> 20 µg/mL	Non-toxic	80%
